The test system of assay [1] is GSK-3β. Description: Astrocyte GSK-3β western blot. The assay is classed as cell-based, mouse. The following applies: astrocytes from 6-month-old male mice, 5 μM, 3 days, cell lysate. The protocol:
FIGS. 4A-4D: 5c(i) induces Synapsin I production and reduces C3 and GSK-3s expression from astrocytes promoting neuron survival and neurite growth. Primary adult cortical astrocytes from 6-month-old male mice were incubated with 5 μM 5c(i) for 3 days. Graph represents mean±SEM of percent change in fluorescent intensity (Synapsin I and C3) or chemiluminescence (GSK-3β) relative to Vehicle (4A and 4D). Images represent the 4B) Vehicle and 4C) 5 μM 5c(i) treated groups stained with Synapsin I and DAPI. D) Cortical astrocytes from 6-month-old male mice were plated and treated with 5c(i) or Vehicle for 2 days. Cells were then washed and cortical neurons from 6-month-old male mice were added on top of the astrocytes. […] Scale bar=50 μm.
To determine if 5c(i) can modulate astrocytes, adult astrocytes from 6-month-old male mice were treated with 5c(i) for 3 days and stained with Synapsin I and C3 to measure changes in fluorescent intensity or western blot was conducted on the cell lysate to assess changes in GSK-3β expression (FIG. 4). […] To determine if 5c(i) treated astrocytes can directly benefit neuronal recovery, astrocytes were cultured with 5c(i) for 2 days before removing 5c(i) from the culture and plating adult neurons on top of the astrocytes for 2DIV, resulting in increased neuron survival and neurite growth. […]
In general terms: Immunoblotting shows a protein as a band on a membrane.

The test system of assay [2] is severe T8 contusion/compression SCI. Description: Preclinical SCI model: Novel Object Recognition (NOR). The format is in vivo, mouse. The following applies: 7 weeks post injury, 24-hr interval.
Method: 8-week-old male mice with a severe T8 contusion/compression SCI were injected IP daily with 5c(i) for 7 weeks (5 and 25 mg/kg/day). 7 weeks post injury, NOR was conducted. 10A) The total number of independent visits to novel object. 10B) Latency to visit novel object. 10C) The ratio of time spent with objects (novel/familiar ratio). […] N=6-8. Graphs show mean and SEM. # (p<0.1) * (p<0.05) ** (p<0.01) *** (p<0.001) **** (p<0.0001). Student's T-test.
Male mice at 8 weeks of age underwent surgery to sustain an SCI. The spinalis thoracis muscle was lacerated to perform a laminectomy at T7-T9 to expose the spinal cord while keeping the dura intact. The mice were then clamped using 2 pairs of Adson forceps before using the Infinite Horizon Impactor at 50 kdyn of force (the contusion) with a 2 second dwell time (the compression) to induce a severe T8 contusion and compression. Self-degrading Catgut sutures were utilized for the closure of the spinalis thoracis muscle before the skin was glued shut with 3M VETBOND™ (n-butyl cyanoacrylate adhesive veterinary tissue adhesive) Tissue Adhesive. All procedures and instruments used for surgery were sterilized prior to surgery to prevent infections. After surgery, mice recovered in a warmed cage and then moved to a cage set at room temperature provided with food and water ad libitum. All surgeries were performed in the morning (8 am-12 pm) to limit potential circadian clock impact. Behavioral assays were performed at the same time in the morning for all the cohorts for the same reason. For the administration of pharmaceutical agents, the vehicle was 0.6 mL/kg of 100% dimethyl sulfoxide (DMSO). 5c(i) (at 5 and 25 mg/kg/day) diluted in vehicle or vehicle alone was administered once daily through intraperitoneal (IP) injections at a volume of 0.6 mL/kg/day. […]
7 weeks after SCI, all post injury cognitive testing was conducted. Novel Object Recognition (NOR): Mice were placed in the empty open field white box for 5 min and recorded. […] Behavioral patterns with respect to the novel and familiar objects was recorded and analyzed. […]
The test system is the same in assay [3]. The experiment in a line: Preclinical SCI model: liver Masson's trichrome collagen deposition. The format is in vivo, mouse. The settings on record: 7 weeks post injury. The method, then:
N=6-8. […] Student's T-test.
Mice were sacrificed 7 weeks after injury by a lethal dose of Fatal plus (pentobarbital), then, transcardial perfusion was performed with PBS-Heparin (10,000 unit/L, 20 mL, 5 mL/min) followed by a 4% paraformaldehyde fixative solution (30 mL/mouse, at 5 mL/min). Right after perfusion, tissues were immersed in 4% PFA for 24 hours, transferred to 15% sucrose for 24 hours, then transferred to 30% sucrose for 24 hours before being embedded. Subsequently, the spinal cords (at injury site±1 mm) were cut into 25 μm-thick transverse sections using a freezing microtome (THERMO FISHER SCIENTIFIC® (laboratory reagents), Microm HM550). […] The images were acquired using VS120 Virtual Slide Microscope (Olympus) and Axio Observer 7 (ZEISS® (optical products)) and analyzed with QuPath 0.4.3. […] The lesion size was measured by tracing the glial scar border labeled with GFAP surrounding a DAPI^+ inner region. Cavity size was measured by measuring the region within the spinal cord without any visible nuclei yet surrounded by GFAP labeled glial scar. Three spinal cord sections per animal were imaged and analyzed. […] Images were quantified using QuPath software. […] Collagen accumulation was quantified using automated QuPath software to determine the extent of fibrosis.

Regarding “C-DIRG-C BODIPY® (fluorescent dye) [5c(i)]”, the GSK-3β expression entry in assay [1] is given as “reduction”. In addition, in assay [2], the “latency to visit novel object” value was “reduced latency to visit”, the “preference for the novel object” value is given as “increased preference” and the “visits to novel object” value was “more visits”. For the same substance, the liver collagen deposition entry in assay [3] is “alleviated”.
